Assay results: patent US20220036967A1, “A METHOD TO DETERMINE AGENTS FOR PERSONALIZED USE” (priority 2018, published 2022)

System: liver metastasis of a breast carcinoma
Assay: treatment of the individual patient chosen according to the test results
Type: in vivo, human
Source text: Biopsy material of a liver metastasis of a breast carcinoma has been obtained from a patient.

## Keytruda: PDL Antibody therapy
100 mg
  tumor markers in controls: did not change tumor markers

## CCc1c2c(nc3ccc(OC(=O)N4CCC(N5CCCCC5)CC4)cc13)-c1cc3c(c(=O)n1C2)COC(=O)[C@]3(O)CC [Irinotecan]
Before treatment 22,230 units/ml, infused in two-weeks intervals according to standard protocols
  tumor marker CA15.3 after treatment: 1513 units
Infused in two-weeks intervals
  malignant ascites: markedly reduced
